In assay [1] the test system is colon adenocarcinoma line SW480. The experiment in a line: SW480 cell-based antiproliferative (MTT) assay. The settings on record: Homo sapiens, SW480, 144 h, 1000 cells per well, 6 days post addition of test compound, read-out: Antiproliferative Activity SW480 (colon) Assay - IC50 Range. On the procedure:
(§1) The estrogen receptor negative epithelial breast carcinoma line (MDA-MB-435) was purchased from American Type Cell Culture Collection (ATCC; Rockville, Md.) and was grown in the medium recommended by ATCC. For analysis of the effect of the test compounds on growth of these cells, the cells were plated at 2000 cells per well in a 96-well tissue culture plate, and were incubated overnight at 37° C. with 5% CO2. The next day, the test compounds were dissolved in 100% dimethyl sulfoxide (DMSO) to yield a 10 mM stock solution. Each compound was diluted with sterile medium to 1 mM in a sufficient quantity to yield a final concentration of 120 μM. The compounds were then serially diluted in medium with 1.2% DMSO. One-fourth final volume of the diluted compounds was transferred to 96 well plates. Test compounds were assayed in duplicate. DMSO was added to a row of “control cells” such that the final concentration of DMSO in each well was 0.3%. Wells to which no cells were added served as the “blank.” Wells to which no inhibitor was added served as “no inhibitor control”. The plates were returned to the incubator, and 5 days post addition of test compound, were analyzed as described below.
(§2) 3-(4,5-Dimethylthiazole-2-yl)-2,5-diphenyl-2H-tetrazolium bromide (thiazolyl blue; MTT) was added to each well to yield a final concentration of 1 mg/mL. The plates were then incubated at 37° C. for 3 hours. The plates were centrifuged at 1000 rpm for 5 minutes prior to aspiration of the MTT-containing medium. The MTT-containing medium was then removed and 100 μL 100% ethanol was added to each well to dissolve the resulting formazan metabolite. To ensure complete dissolution, plates were shaken for 15 minutes at room temperature. Absorbencies were read in a microtiter plate reader (Molecular Dynamics) at a wavelength of 570 nm with a 650 nm reference. Percent inhibition was calculated by subtracting the absorbance of the blank (no cell) wells from all wells, then subtracting the division of the average absorbance of each test duplicate by the average of the controls from 1.00. Inhibitory concentrations (IC50) were determined from the linear regression of a plot of the logarithm of the concentration versus the percent inhibition.
(§3) The colon adenocarcinoma line SW480 and the colon carcinoma line HCT-116 also were obtained from the ATCC and were tested according to the same protocol provided above for MDA-MB435 cell based assay with the following modifications. Cell line SW480 was plated at 1000 cells per well and analyzed at 6 days post addition of the test compound. Cell line HCT-116 was plated at 1000 cells per well and analyzed at 4 days post addition of test compound.

Assay [2] deals with T1, Recombinant active human Cyclin E/CDK2 complexes (Homo sapiens, UniProt P24941).
T1 construct: made in house; host or cells: insect cells
The experiment in a line: CDK2 FlashPlate Assay (inhibition of Rb phosphorylation). The assay is classed as biochemical. The note with it: Cyclin E/CDK2, Rb substrate, 33P-ATP, 25 minutes at room temperature; read-out: Inhibition of Cdk2 - IC50 Range. On the procedure:
To determine inhibition of CDK2 activity, purified recombinant retinoblastoma (Rb) protein was coated on 96 well FlashPlates (New England Nuclear, Boston, Mass.). Rb is a natural substrate for phosphorylation by CDK2 (Herwig and Strauss Eurr. J. Biochem., Vol. 246 (1997) pp. 581-601 and references therein). Recombinant active human Cyclin E/CDK2 complexes were partially purified from extracts of insect cells. The active Cyclin E/CDK2 was added to the Rb-coated FlashPlates along with ^33P-ATP and dilutions of test compounds. Plates were incubated for 25 minutes at room temperature with shaking, then washed and counted in the Topcount scintillation counter (Packard Instrument Co., Downers Grove, Ill.). Dilutions of test compounds were tested in duplicate in each assay. The percent inhibition of Rb phosphorylation, which is a measure of the inhibition of CDK2 activity, was determined according to the following formula: [formula] where “test compound” refers to the average counts per minute of the test duplicates, “nonspecific” refers to the average counts per minute when no Cyclin E/CDK2 was added, and “total” refers to the average counts per minute when no compound was added.

In assay [3] the test system is colon carcinoma line HCT-116. The experiment in a line: HCT-116 cell-based antiproliferative (MTT) assay. The settings on record: Homo sapiens, HCT-116, 96 h, 1000 cells per well, 4 days post addition of test compound, read-out: Antiproliferative Activity HCT 116 (colon) Assay - IC50 Range. As for the experimental part:
as §1, §2, §3

Assay [4] deals with estrogen receptor negative epithelial breast carcinoma line (MDA-MB-435). The experiment in a line: MDA-MB-435 cell-based antiproliferative (MTT) assay. The settings on record: Homo sapiens, MDA-MB-435, 120 h, 2000 cells per well, 5 days post addition of test compound, read-out: Antiproliferative Activity of MDA-MB435 (breast) Assay - IC50 Range. On the procedure:
as §1, §2

The structures appear in SMILES notation.

`c1ccc(C2=Nc3c[nH]nc3Nc3ccccc32)cc1` [Compound A9, 5-phenyl-pyrazolo[3,4][1,4]benzodiazepine]: the IC50 in assay [1] is 10000 to 30000 nM; in assay [2] it was 1000 to 9990 nM; in assay [3] it was 10 to 30 µM.
As for `CS(=O)(=O)c1ccc2c(c1)C(c1ccccc1)=Nc1c[nH]nc1N2` [Compound A14, 5-phenyl-7-methanesulfonyl-pyrazolo[3,4][1,4]benzodiazepine], the IC50 in assay [2] lay in the range of 1000 to 9990 nM; in assay [3], 10 to 30 µM.
On the same counts, the results for `O=[N+]([O-])c1ccc2c(c1)C(c1ccccc1)=Nc1c[nH]nc1N2` [Compound A16, 5-phenyl-7-nitro-pyrazolo[3,4][1,4]benzodiazepine] are 10 to 990 nM and 10 to 30 µM.
Take `COc1ccc2c(c1)C(c1ccccc1Cl)=Nc1c(n[nH]c1C)N2` [Compound B18, 3-methyl-5-(2-chlorophenyl)-7-methoxy-pyrazolo[3,4][1,4]benzodiazepine]: the IC50 in assay [4] is 1100 to 9990 nM; in assay [1], 1100 to 9990 nM; in assay [2] it was 10 to 990 nM.
`Cc1[nH]nc2c1N=C(c1ccccc1)c1cc(Cl)ccc1N2` [Compound B19, 3-methyl-5-phenyl-7-chloro-pyrazolo[3,4][1,4]benzodiazepine]: the IC50 in assay [4] lay in the range of 1100 to 9990 nM; in assay [1], 1100 to 9990 nM; in assay [2] it was 10 to 990 nM.
Take `Cc1[nH]nc2c1N=C(c1ccccc1Cl)c1cc(Cl)ccc1N2` [Compound B20, 3-methyl-5-(2-chlorophenyl)-7-chloro-pyrazolo[3,4][1,4]benzodiazepine]: the IC50 was 1100 to 9990 nM in assay [4], 1100 to 9990 nM in assay [1] and 10 to 990 nM in assay [2].
With `Cc1[nH]nc2c1N=C(c1ccccc1F)c1ccccc1N2` [Compound B21, 3-methyl-5-(2-fluorophenyl)-pyrazolo[3,4][1,4]benzodiazepine], the values for the IC50 in assay [4], in assay [1] and in assay [2] were 1100 to 9990 nM, 10 to 1000 nM and 10 to 990 nM, respectively.
For `Cc1[nH]nc2c1N=C(c1ccccc1)c1cc(F)ccc1N2` [Compound B22, 3-methyl-5-phenyl-7-fluoro-pyrazolo[3,4][1,4]benzodiazepine], in that order: 10 to 1000 nM, 1100 to 9990 nM and 10 to 990 nM.
On the same counts, the results for `Cc1[nH]nc2c1N=C(c1ccccc1F)c1cc(I)ccc1N2` [Compound B29, 3-methyl-5-(2-fluorophenyl)-7-iodo-pyrazolo[3,4][1,4]benzodiazepine] are 10 to 1000 nM, 1100 to 9990 nM and 10 to 990 nM.
For `Cc1[nH]nc2c1N=C(c1ccccc1Cl)c1ccccc1N2` [Compound B30, 3-methyl-5-(2-chlorophenyl)-pyrazolo[3,4][1,4]benzodiazepine], in that order: 1100 to 9990 nM, 1100 to 9990 nM and 10 to 990 nM.
For `Cc1[nH]nc2c1N=C(c1ccccc1F)c1cc([N+](=O)[O-])ccc1N2` [Compound B31, 3-methyl-5-(2-fluorophenyl)-7-nitro-pyrazolo[3,4][1,4]benzodiazepine], the values for the IC50 in assay [4], in assay [1] and in assay [2] were 10 to 1000 nM, 10 to 1000 nM and 10 to 990 nM, respectively.
With `N#Cc1ccc2c(c1)C(c1ccccc1F)=Nc1c(n[nH]c1CO)N2` [Compound B35, 3-hydroxymethyl-5-(2-fluorophenyl)-pyrazolo[3,4][1,4]-benzodiazepine-7-carbonitrile], the IC50 in assay [4] was 10 to 1000 nM; in assay [1], 10 to 1000 nM; in assay [2] it was 10 to 990 nM.
On to `O=C(NCCO)c1ccc2c(c1)C(c1ccccc1F)=Nc1c[nH]nc1N2` [Compound C2, N-(2-hydroxyethyl)-5-(2-fluorophenyl)-pyrazolo[3,4][1,4]benzodiazepine-7-carboxamide], for which the IC50 is 10 to 990 nM in assay [2] and 10 to 30 µM in assay [3].
As for `Cc1[nH]nc2c1N=C(c1ccccc1Cl)c1cc(N)ccc1N2` [Compound C4], the values for the IC50 in assay [4], in assay [1] and in assay [2] were 10 to 1000 nM, 10 to 1000 nM and 10 to 990 nM, respectively.
Regarding `CC(=O)Nc1ccc2c(c1)C(c1ccccc1Cl)=Nc1c(n[nH]c1C)N2` [Compound C7, N-(3-methyl-5-(2-chlorophenyl)-pyrazolo[3,4][1,4]benzodiazepin-7-yl)-acetamide], the IC50 in assay [4] fell in the range of 10 to 1000 nM; in assay [1] it was 10 to 1000 nM; in assay [2], 10 to 990 nM.
Turning to `C=CC(=O)Nc1ccc2c(c1)C(c1ccccc1Cl)=Nc1c(n[nH]c1C)N2` [Compound C8, N-(3-methyl-5-(2-chlorophenyl)-pyrazolo[3,4][1,4]benzodiazepin-7-yl)-2-propenamide], the IC50 lay in the range of 10 to 1000 nM in assay [4], 10 to 1000 nM in assay [1] and 10 to 990 nM in assay [2].
Turning to `Cc1[nH]nc2c1N=C(c1ccccc1Cl)c1cc(NS(C)(=O)=O)ccc1N2` [Compound C9, N-(3-methyl-5-(2-chlorophenyl)-pyrazolo[3,4][1,4]benzodiazepin-7-yl)-methanesulfonamide], the IC50 fell in the range of 10 to 1000 nM in assay [4], 10 to 1000 nM in assay [1] and 10 to 990 nM in assay [2].
In the case of `NC(=O)c1[nH]nc2c1N=C(c1ccccc1Cl)c1cc([N+](=O)[O-])ccc1N2` [Compound C10, 5-(2-chlorophenyl)-7-nitro-pyrazolo[3,4][1,4]benzodiazepine-3-carboxamide], the IC50 is 10000 to 30000 nM in assay [4] and 10 to 990 nM in assay [2].
Consider `O=Cc1[nH]nc2c1N=C(c1ccccc1Cl)c1cc([N+](=O)[O-])ccc1N2` [Compound C13, 5-(2-chlorophenyl)-7-nitro-pyrazolo[3,4][1,4]benzodiazepine-3-carboxaldehyde], for which the IC50 was 10 to 1000 nM in assay [4] and 10 to 990 nM in assay [2].
For the compound `O=[N+]([O-])c1ccc2c(c1)C(c1ccccc1Cl)=Nc1c(n[nH]c1CO)N2` [Compound C14, 3-hydroxymethyl-5-(2-chlorophenyl)-7-nitro-pyrazolo[3,4][1,4]benzodiazepine], the IC50 fell in the range of 10 to 1000 nM in assay [4], 10 to 1000 nM in assay [1] and 10 to 990 nM in assay [2].
As to `COCc1[nH]nc2c1N=C(c1ccccc1Cl)c1cc([N+](=O)[O-])ccc1N2` [Compound C16, 3-methoxymethyl-5-(2-chlorophenyl)-7-nitro-pyrazolo[3,4][1,4]benzodiazepine], the IC50 in assay [4] lay in the range of 1100 to 9990 nM; in assay [2], 10 to 990 nM.
On to `C=Cc1[nH]nc2c1N=C(c1ccccc1Cl)c1cc([N+](=O)[O-])ccc1N2` [Compound C17, 3-ethenyl-5-(2-chlorophenyl)-7-nitro-pyrazolo[3,4][1,4]benzodiazepine], for which the IC50 in assay [4] fell in the range of 10 to 1000 nM; in assay [2], 10 to 990 nM.
As to `N#Cc1[nH]nc2c1N=C(c1ccccc1Cl)c1cc([N+](=O)[O-])ccc1N2` [Compound C18, 5-(2-chlorophenyl)-7-nitro-pyrazolo[3,4][1,4]benzodiazepine-3-carbonitrile], the figures for the IC50 in assay [4] and in assay [2] were 10000 to 30000 nM and 10 to 990 nM, respectively.
In the case of `CSc1ccc(-c2[nH]nc3c2N=C(c2ccccc2Cl)c2cc([N+](=O)[O-])ccc2N3)cc1` [Compound D11], the IC50 in assay [2] lay in the range of 10 to 990 nM; in assay [3] it was 10 to 30 µM.
On the same counts, the results for `O=[N+]([O-])c1ccc2c(c1)C(c1ccccc1)=Nc1c(n[nH]c1C1CC1)N2` [Compound D18] are 10 to 990 nM and 10 to 30 µM.

Source of the values: patent US6916923B2 (Hoffmann-La Roche Inc., priority 1999, dated 2005).
